Measurements: paper PMC5218480 (PLoS ONE, 2017)

Test system: MV-4-11 cells
Experiment: Gene expression microarray analysis (Affymetrix PrimeView) and GSEA
Format: cell-based, human
Design: RFU PODN (11730768_x_at) / Fold change /veh PODN (11730768_x_at) / RFU LINC00158 (11744669_a_at) / Fold change /veh LINC00158 (11744669_a_at) / RFU DUSP10 (11751237_a_at) / Fold change /veh DUSP10 (11751237_a_at) / RFU ID3 (11757404_x_at) / Fold change /veh ID3 (11757404_x_at) / RFU PLEKHG5 (11737974_s_at) / Fold change /veh PLEKHG5 (11737974_s_at) / RFU LRRC4B (11730491_at) / Fold change /veh LRRC4B (11730491_at) / RFU GIMAP4 (11747438_a_at) / Fold change /veh GIMAP4 (11747438_a_at) / RFU KRT8 (11758183_x_at) / Fold change /veh KRT8 (11758183_x_at) / RFU CNN1 (11734310_a_at) / Fold change /veh CNN1 (11734310_a_at) / RFU VPS37D (11726825_at) / Fold change /veh VPS37D (11726825_at) / RFU C10orf10 (11716522_x_at) / Fold change /veh C10orf10 (11716522_x_at) / RFU KIR2DL2 /// KIR2DL4 /// KIR2DL5A /// KIR2DL5B /// KIR2DS1 /// KIR2DS2 /// KIR2DS3 /// KIR2DS4 /// KIR3DL3 /// KIR3DL3 /// KIR3DS1 (11738374_at) / Fold change /veh KIR2DL2 /// KIR2DL4 /// KIR2DL5A /// KIR2DL5B /// KIR2DS1 /// KIR2DS2 /// KIR2DS3 /// KIR2DS4 /// KIR3DL3 /// KIR3DL3 /// KIR3DS1 (11738374_at) / RFU C1QL1 (11718748_at) / Fold change /veh C1QL1 (11718748_at) / RFU TMPRSS4 (11747572_a_at) / Fold change /veh TMPRSS4 (11747572_a_at) / RFU HAMP (11756126_x_at) / Fold change /veh HAMP (11756126_x_at) / RFU RNFT2 (11725882_a_at) / Fold change /veh RNFT2 (11725882_a_at) / RFU NR4A2 (11747474_a_at) / Fold change /veh NR4A2 (11747474_a_at) / RFU ABCC12 (11746883_a_at) / Fold change /veh ABCC12 (11746883_a_at) / RFU TMEM136 (11760407_x_at) / Fold change /veh TMEM136 (11760407_x_at) / RFU CLDN22 /// WWC2 (11732394_at) / Fold change /veh CLDN22 /// WWC2 (11732394_at) / RFU HLA-DPB1 (11760878_x_at) / Fold change /veh HLA-DPB1 (11760878_x_at) / RFU SPINT1 (11716480_a_at) / Fold change /veh SPINT1 (11716480_a_at) / RFU GAP43 (11754022_s_at) / Fold change /veh GAP43 (11754022_s_at) / RFU A4GNT (11735810_at) / Fold change /veh A4GNT (11735810_at) / RFU PRB3 (11715151_x_at) / Fold change /veh PRB3 (11715151_x_at) / RFU TUBB4B (11761932_at) / Fold change /veh TUBB4B (11761932_at) / RFU CAPN14 (11732068_a_at) / Fold change /veh CAPN14 (11732068_a_at) / RFU TMCC2 (11721928_a_at) / Fold change /veh TMCC2 (11721928_a_at) / RFU IRGQ (11745062_a_at) / Fold change /veh IRGQ (11745062_a_at) / RFU FAM174B (11720279_a_at) / Fold change /veh FAM174B (11720279_a_at) / RFU TMPRSS4 (11748680_a_at) / Fold change /veh TMPRSS4 (11748680_a_at) / RFU FAM212B (11763350_a_at) / Fold change /veh FAM212B (11763350_a_at) / RFU PLEKHG5 (11743358_a_at) / Fold change /veh PLEKHG5 (11743358_a_at) / RFU ZSCAN30 (11745921_a_at) / Fold change /veh ZSCAN30 (11745921_a_at) / RFU CMKLR1 (11741424_a_at) / Fold change /veh CMKLR1 (11741424_a_at) / RFU LOC101060620 /// MAPK8IP1 (11723275_at) / Fold change /veh LOC101060620 /// MAPK8IP1 (11723275_at) / RFU SPTSSB (11747773_x_at) / Fold change /veh SPTSSB (11747773_x_at) / RFU PRSS12 (11739890_at) / Fold change /veh PRSS12 (11739890_at) / RFU BIN1 (11741810_x_at) / Fold change /veh BIN1 (11741810_x_at) / RFU WNT11 (11732464_a_at) / Fold change /veh WNT11 (11732464_a_at) / RFU C10orf10 (11716521_a_at) / Fold change /veh C10orf10 (11716521_a_at) / RFU C5orf56 (11738089_at) / Fold change /veh C5orf56 (11738089_at) / RFU CYB561 (11721691_x_at) / Fold change /veh CYB561 (11721691_x_at) / RFU ANKRD19P (11752326_a_at) / Fold change /veh ANKRD19P (11752326_a_at) / RFU OR2T12 /// OR2T33 /// OR2T8 (11738714_s_at) / Fold change /veh OR2T12 /// OR2T33 /// OR2T8 (11738714_s_at) / RFU VCAN (11748164_a_at) / Fold change /veh VCAN (11748164_a_at) / RFU JSRP1 (11732532_at) / Fold change /veh JSRP1 (11732532_at) / RFU KRTAP10-11 (11738290_x_at) / Fold change /veh KRTAP10-11 (11738290_x_at) / RFU MYO3A (11730013_a_at) / Fold change /veh MYO3A (11730013_a_at) / RFU EBF3 (11725865_a_at) / Fold change /veh EBF3 (11725865_a_at) / RFU CAMK2N1 (11719241_x_at) / Fold change /veh CAMK2N1 (11719241_x_at) / RFU C5orf56 (11738088_a_at) / Fold change /veh C5orf56 (11738088_a_at) / RFU OLFML3 (11715873_a_at) / Fold change /veh OLFML3 (11715873_a_at) / RFU LOC100653217 /// NTM (11731650_a_at) / Fold change /veh LOC100653217 /// NTM (11731650_a_at) / RFU MAPK11 (11762145_a_at) / Fold change /veh MAPK11 (11762145_a_at) / RFU FIZ1 (11724087_x_at) / Fold change /veh FIZ1 (11724087_x_at) / RFU OASL (11726364_x_at) / Fold change /veh OASL (11726364_x_at) / RFU SOX15 (11748057_x_at) / Fold change /veh SOX15 (11748057_x_at) / RFU CD79A (11719716_a_at) / Fold change /veh CD79A (11719716_a_at) / RFU HIST1H1D (11736915_at) / Fold change /veh HIST1H1D (11736915_at) / RFU CASKIN2 (11723855_a_at) / Fold change /veh CASKIN2 (11723855_a_at) / RFU LOC730098 (11760151_x_at) / Fold change /veh LOC730098 (11760151_x_at) / RFU OR4N2 (11742367_at) / Fold change /veh OR4N2 (11742367_at) / RFU PRRT2 (11749266_a_at) / Fold change /veh PRRT2 (11749266_a_at) / RFU SNX32 (11753110_a_at) / Fold change /veh SNX32 (11753110_a_at) / RFU CDHR5 (11726645_a_at) / Fold change /veh CDHR5 (11726645_a_at) / RFU RCAN1 (11760418_a_at) / Fold change /veh RCAN1 (11760418_a_at) / RFU FAM167A (11723789_a_at) / Fold change /veh FAM167A (11723789_a_at) / RFU FAM26E (11764081_at) / Fold change /veh FAM26E (11764081_at) / RFU ISYNA1 (11749810_s_at) / Fold change /veh ISYNA1 (11749810_s_at) / RFU ACY1 (11761880_at) / Fold change /veh ACY1 (11761880_at) / RFU 11764098_at / Fold change /veh 11764098_at / RFU SAMD14 (11745864_x_at) / Fold change /veh SAMD14 (11745864_x_at) / RFU NPB (11741838_a_at) / Fold change /veh NPB (11741838_a_at) / RFU TMPRSS6 (11731388_a_at) / Fold change /veh TMPRSS6 (11731388_a_at) / RFU KRTAP10-2 (11738614_at) / Fold change /veh KRTAP10-2 (11738614_at) / RFU ARHGAP8 /// PRR5-ARHGAP8 (11727945_x_at) / Fold change /veh ARHGAP8 /// PRR5-ARHGAP8 (11727945_x_at) / RFU KRTAP5-7 /// NADSYN1 (11734609_at) / Fold change /veh KRTAP5-7 /// NADSYN1 (11734609_at) / RFU RASL12 (11751679_a_at) / Fold change /veh RASL12 (11751679_a_at) / RFU CDKN2B (11736163_a_at) / Fold change /veh CDKN2B (11736163_a_at) / RFU PRF1 (11729649_at) / Fold change /veh PRF1 (11729649_at) / RFU, ZNF638 /// ZNF638-IT1 / Fold change vs veh, ZNF638 /// ZNF638-IT1 / RFU, PANK3 / Fold change vs veh, PANK3 / RFU, SH3YL1 / Fold change vs veh, SH3YL1 / RFU, ZEB2 / Fold change vs veh, ZEB2 / RFU, NRIP1 / Fold change vs veh, NRIP1 / RFU, PTTG1IP / Fold change vs veh, PTTG1IP / RFU, CAPN2 / Fold change vs veh, CAPN2 / RFU, MED14 / Fold change vs veh, MED14 / RFU, SNORA58 / Fold change vs veh, SNORA58 / RFU, C1orf63 / Fold change vs veh, C1orf63 / RFU, LRRFIP1 / Fold change vs veh, LRRFIP1 / RFU, NDUFAF7 / Fold change vs veh, NDUFAF7 / RFU, SLC12A2 / Fold change vs veh, SLC12A2 / RFU, IBTK / Fold change vs veh, IBTK / RFU, ESF1 / Fold change vs veh, ESF1 / Fold change vs veh, TMEM50B / RFU, TAOK1 / Fold change vs veh, TAOK1 / RFU, ACBD3 / Fold change vs veh, ACBD3 / RFU, TMA16 / Fold change vs veh, TMA16 / RFU, RWDD3 / Fold change vs veh, RWDD3 / RFU, BCAT1 / Fold change vs veh, BCAT1 / RFU, EDEM3 / Fold change vs veh, EDEM3 / RFU, TMEM33 / Fold change vs veh, TMEM33 / RFU, WDR75 / Fold change vs veh, WDR75 / RFU, AHCTF1 / Fold change vs veh, AHCTF1 / RFU, TFRC / Fold change vs veh, TFRC / RFU, ZDHHC17 / Fold change vs veh, ZDHHC17 / RFU, NOM1 / Fold change vs veh, NOM1 / RFU, ARL8B / Fold change vs veh, ARL8B / RFU, ZBTB11 / Fold change vs veh, ZBTB11 / RFU, TAMM41 / Fold change vs veh, TAMM41 / RFU, KIAA1704 /// LOC100996395 / Fold change vs veh, KIAA1704 /// LOC100996395 / RFU, ING1 / Fold change vs veh, ING1 / RFU, TRMT61B / Fold change vs veh, TRMT61B / RFU, FUBP3 / Fold change vs veh, FUBP3 / RFU, TP53 / Fold change vs veh, TP53 / RFU, TNKS2 / Fold change vs veh, TNKS2 / RFU, ZFP14 / Fold change vs veh, ZFP14 / RFU, ACTR2 / Fold change vs veh, ACTR2 / RFU, PPP3R1 / Fold change vs veh, PPP3R1 / RFU, PIK3R1 / Fold change vs veh, PIK3R1 / RFU, HNRNPA1 / Fold change vs veh, HNRNPA1 / RFU, RNF170 / Fold change vs veh, RNF170 / RFU, ZNF28 / Fold change vs veh, ZNF28 / RFU, RNGTT / Fold change vs veh, RNGTT / RFU, OGT / Fold change vs veh, OGT / RFU, BRD1 / Fold change vs veh, BRD1 / RFU, MARS / Fold change vs veh, MARS / RFU, ZNF655 / Fold change vs veh, ZNF655 / RFU, FAHD1 / Fold change vs veh, FAHD1 / RFU, BDP1 / Fold change vs veh, BDP1 / RFU, LRRCC1 / Fold change vs veh, LRRCC1 / RFU, ARID1A / Fold change vs veh, ARID1A / RFU, ZNF146 / Fold change vs veh, ZNF146 / RFU, ZNF330 / Fold change vs veh, ZNF330 / RFU, GPN3 / Fold change vs veh, GPN3 / RFU, C9orf123 / Fold change vs veh, C9orf123 / RFU, N4BP2L2 / Fold change vs veh, N4BP2L2 / RFU, ARFIP1 / Fold change vs veh, ARFIP1 / RFU, FAM179B / Fold change vs veh, FAM179B / RFU, BCL10 / Fold change vs veh, BCL10 / RFU, UHRF1BP1L / Fold change vs veh, UHRF1BP1L / RFU, BET1 / Fold change vs veh, BET1 / RFU, CNOT2 / Fold change vs veh, CNOT2 / RFU, ZNF268 / Fold change vs veh, ZNF268 / Fold change vs veh, ZNF507 / RFU, DGCR2 / Fold change vs veh, DGCR2 / RFU, WDSUB1 / Fold change vs veh, WDSUB1 / Fold change vs veh, HSP90B1 /// MIR3652 / RFU, ADSS / Fold change vs veh, ADSS / RFU, GK / Fold change vs veh, GK / RFU, ZNF148 / Fold change vs veh, ZNF148 / RFU, TAF9 / Fold change vs veh, TAF9 / RFU, SLC1A5 / Fold change vs veh, SLC1A5 / RFU, SLMO2 / Fold change vs veh, SLMO2 / RFU, ABCC4 / Fold change vs veh, ABCC4 / RFU, LOC101060439 /// RAP1B / Fold change vs veh, LOC101060439 /// RAP1B / RFU, RFX7 / Fold change vs veh, RFX7 / RFU, GTPBP10 / Fold change vs veh, GTPBP10 / RFU, CNEP1R1 / Fold change vs veh, CNEP1R1 / RFU, BIVM-ERCC5 /// ERCC5 / Fold change vs veh, BIVM-ERCC5 /// ERCC5 / RFU, ILF3 / Fold change vs veh, ILF3 / RFU 11762660_at / Fold change /veh 11762660_at / RFU VCAN (11757783_s_at) / Fold change /veh VCAN (11757783_s_at) / RFU DDX43 (11728927_at) / Fold change /veh DDX43 (11728927_at) / RFU KRT8 (11758188_x_at) / Fold change /veh KRT8 (11758188_x_at) / RFU NKD1 (11759106_at) / Fold change /veh NKD1 (11759106_at) / RFU SRD5A1 (11742802_a_at) / Fold change /veh SRD5A1 (11742802_a_at) / RFU TPSAB1 /// TPSB2 (11721975_s_at) / Fold change /veh TPSAB1 /// TPSB2 (11721975_s_at) / RFU GSTM3 (11746129_a_at) / Fold change /veh GSTM3 (11746129_a_at) / RFU IL23R (11737362_x_at) / Fold change /veh IL23R (11737362_x_at) / RFU TMEM51 (11727254_a_at) / Fold change /veh TMEM51 (11727254_a_at) / RFU PIWIL2 (11732686_x_at) / Fold change /veh PIWIL2 (11732686_x_at) / RFU ORM1 (11744905_x_at) / Fold change /veh ORM1 (11744905_x_at) / RFU CCDC152 (11743942_at) / Fold change /veh CCDC152 (11743942_at) / RFU ECM1 (11717891_a_at) / Fold change /veh ECM1 (11717891_a_at) / RFU IL23R (11748794_a_at) / Fold change /veh IL23R (11748794_a_at) / RFU TNFAIP8L3 (11732012_x_at) / Fold change /veh TNFAIP8L3 (11732012_x_at) / RFU MBOAT4 (11741988_at) / Fold change /veh MBOAT4 (11741988_at) / RFU 11764193_at / Fold change /veh 11764193_at / RFU TMEM53 (11763286_at) / Fold change /veh TMEM53 (11763286_at) / RFU MAGEB2 (11727129_at) / Fold change /veh MAGEB2 (11727129_at) / RFU TMEM200A (11744735_a_at) / Fold change /veh TMEM200A (11744735_a_at) / RFU CCDC152 (11751479_a_at) / Fold change /veh CCDC152 (11751479_a_at) / RFU FAM211A (11726209_a_at) / Fold change /veh FAM211A (11726209_a_at) / RFU RGS16 (11746705_a_at) / Fold change /veh RGS16 (11746705_a_at) / RFU VCAN (11755009_s_at) / Fold change /veh VCAN (11755009_s_at) / RFU RHOB (11743442_s_at) / Fold change /veh RHOB (11743442_s_at) / RFU RGS16 (11720943_a_at) / Fold change /veh RGS16 (11720943_a_at) / RFU RGS16 (11720944_at) / Fold change /veh RGS16 (11720944_at) / RFU, VPS4B / Fold change vs veh, VPS4B / RFU, CREB1 / Fold change vs veh, CREB1 / RFU, DNAJC13 / Fold change vs veh, DNAJC13 / RFU, GNAQ / Fold change vs veh, GNAQ / RFU, CDK5R1 / Fold change vs veh, CDK5R1 / RFU, ZRANB3 / Fold change vs veh, ZRANB3 / RFU, CUL4A / Fold change vs veh, CUL4A / RFU, CCNY / Fold change vs veh, CCNY / RFU, UFL1 / Fold change vs veh, UFL1 / RFU, COG3 / Fold change vs veh, COG3 / RFU, DIAPH2 / Fold change vs veh, DIAPH2 / RFU, SKA2 / Fold change vs veh, SKA2 / RFU, AFF3 / Fold change vs veh, AFF3 / RFU, LMF1 / Fold change vs veh, LMF1 / RFU, IPO11 / Fold change vs veh, IPO11 / RFU, DFFB / Fold change vs veh, DFFB / RFU, FOXP1 / Fold change vs veh, FOXP1 / RFU, CARD8 / Fold change vs veh, CARD8 / RFU, STRN3 / Fold change vs veh, STRN3 / RFU, ADK / Fold change vs veh, ADK / RFU, RASSF2 / Fold change vs veh, RASSF2 / RFU, WIPF1 / Fold change vs veh, WIPF1 / RFU, LARP1B / Fold change vs veh, LARP1B / RFU, RASA1 / Fold change vs veh, RASA1 / RFU, RB1 / Fold change vs veh, RB1 / RFU, PPFIA1 / Fold change vs veh, PPFIA1 / RFU, MAT2A / Fold change vs veh, MAT2A / RFU, CCT5 / Fold change vs veh, CCT5 / RFU, WDR92 / Fold change vs veh, WDR92 / RFU, CUX1 / Fold change vs veh, CUX1 / RFU, TTC7A / Fold change vs veh, TTC7A / RFU, TMEM135 / Fold change vs veh, TMEM135 / RFU, DEPTOR / Fold change vs veh, DEPTOR / RFU, CPM / Fold change vs veh, CPM / RFU, DNAJB6 / Fold change vs veh, DNAJB6 / RFU, CACNA2D3 / Fold change vs veh, CACNA2D3 / RFU, DTX4 / Fold change vs veh, DTX4 / RFU, TFCP2 / Fold change vs veh, TFCP2 / RFU, GMCL1 /// GMCL1P1 / Fold change vs veh, GMCL1 /// GMCL1P1 / RFU, AEBP2 / Fold change vs veh, AEBP2 / RFU, SNHG1 /// SNORD22 /// SNORD25 /// SNORD26 /// SNORD27 /// SNORD28 /// SNORD29 /// SNORD31 / Fold change vs veh, SNHG1 /// SNORD22 /// SNORD25 /// SNORD26 /// SNORD27 /// SNORD28 /// SNORD29 /// SNORD31 / Fold change (Aza/veh), C12orf56 (ProbeSet 11735607_a_at) / Fold change (ACY-1035/veh), C12orf56 (ProbeSet 11735607_a_at) / Fold change (Aza/veh), FGFR1OP (ProbeSet 11751329_s_at) / Fold change (ACY-1035/veh), FGFR1OP (ProbeSet 11751329_s_at) / Fold change (Aza/veh), VPS36 (ProbeSet 11739960_a_at) / Fold change (ACY-1035/veh), VPS36 (ProbeSet 11739960_a_at) / RFU SYPL1 (11715823_x_at) / Fold change /veh SYPL1 (11715823_x_at) / RFU IGFBP7 (11715501_s_at) / Fold change /veh IGFBP7 (11715501_s_at) / RFU REEP3 (11722064_at) / Fold change /veh REEP3 (11722064_at) / RFU IGLL1 (11728026_x_at) / Fold change /veh IGLL1 (11728026_x_at): dose or concentration left out as unconfirmed
Conditions: MV-4-11 cells, 48 hours

Nc1ccc(-c2cccs2)cc1NC(=O)c1ccc2c(c1)cc(C1CC1)n2CCN1CCOCC1 [ACY-1035]
RFU TUBB4B (11761932_at): 19.33 RFU
